Experimental data reported in US20070074295A1 (priority 2000, published 2007).

Test system: freely moving rats
Assay: Induction and maintenance of PCP-induced hypofunction: LCGU by 14C-2-deoxyglucose autoradiography
Format: in vivo, rat
Experimental: An initial treatment period of intraperitoneal (i.p.) injections once daily for 5 days was carried out, followed by a maintenance schedule of i.p. injections three times weekly (every 60 hours) for a further 21 days.
Intermittent exposure to PCP during the maintenance phase of the model was favoured due to the long half life of the drug within brain tissue (Misra, A. L. et al). […] As a comparison to the present model, the inventors also investigated the effect of previously published subchronic treatment with PCP (Jentsch, J. D. et al) using quantitative C-2-deoxyglucose autoradiography (Sokoloff, L.)
Local cerebral glucose utilisation (LCGU) was measured using an adaptation of the original method for freely moving rats (Crane, A. M. et al) 72 hours after the initial induction phase (day 8) and 72 hours after the induction phase followed by the maintenance phase (day 29). LCGU was measured 72 hours after the last exposure to PCP so the effects of PCP on LCGU would be independent of the acute effects of the drug. […] Thus, using a dose of 2.59 mgkg^−1 the inventors had established a novel treatment paradigm which mimics the findings of human imaging studies in schizophrenic patients.

Question: For `c1ccc(C2(N3CCCCC3)CCCCC2)cc1` [PCP, phencyclidine], which “LCGU, AuD layers II, III&IV” value (0.86 mgkg^−1 PCP i.p., day 29) is on record?
Answer: Its value is 178 ± 10 μmol/100 g/min.

Question: What about the “LCGU, AuD layers V & VI” value (0.86 mgkg^−1 PCP i.p., day 29) of the same compound?
Answer: Its value is 128 ± 9 μmol/100 g/min.

Question: What about the “LCGU, DLL” value (0.86 mgkg^−1 PCP i.p., day 29) of the same compound?
Answer: The value was 116 ± 8 μmol/100 g/min.

Question: What about the “LCGU, MD” value (0.86 mgkg^−1 PCP i.p., day 29) of the same compound?
Answer: The value was 122 ± 5 μmol/100 g/min.

Question: And the “LCGU, PrL layer I” value (0.86 mgkg^−1 PCP i.p., day 29)?
Answer: The value was 133 ± 2 μmol/100 g/min.

Question: And the “LCGU, PrL layers II & III” value (0.86 mgkg^−1 PCP i.p., day 29)?
Answer: The value was 149 ± 2 μmol/100 g/min.

Question: And the “LCGU, PrL layers V & VI” value (0.86 mgkg^−1 PCP i.p., day 29)?
Answer: Its value is 112 ± 3 μmol/100 g/min.

Question: What about the “LCGU, Rt” value (0.86 mgkg^−1 PCP i.p., day 29) of the same compound?
Answer: Its value is 108 ± 4 μmol/100 g/min.

Question: What about the “LCGU, VLL” value (0.86 mgkg^−1 PCP i.p., day 29) of the same compound?
Answer: The value was 118 ± 13 μmol/100 g/min.

Question: And the “LCGU, cochlear nucleus” value (0.86 mgkg^−1 PCP i.p., day 29)?
Answer: The value was 117 ± 2 μmol/100 g/min.

Question: And the “LCGU, mO layer” value (0.86 mgkg^−1 PCP i.p., day 29)?
Answer: Its value is 122 ± 3 μmol/100 g/min.

Question: What about the “LCGU, mO layers II & III” value (0.86 mgkg^−1 PCP i.p., day 29) of the same compound?
Answer: Its value is 135 ± 4 μmol/100 g/min.

Question: What about the “LCGU, mO layers V & VI” value (0.86 mgkg^−1 PCP i.p., day 29) of the same compound?
Answer: Its value is 136 ± 3 μmol/100 g/min.

Question: And the “LCGU, Au layer I” value (2.58 mgkg^−1 PCP i.p., day 8)?
Answer: The value was 135 ± 3 μmol/100 g/min.

Question: What about the “LCGU, Au layers II, III&IV” value (2.58 mgkg^−1 PCP i.p., day 8) of the same compound?
Answer: The value was 166 ± 5 μmol/100 g/min.

Question: And the “LCGU, Au layers V & VI” value (2.58 mgkg^−1 PCP i.p., day 8)?
Answer: Its value is 120 ± 4 μmol/100 g/min.

Question: And the “LCGU, AuD layer I” value (2.58 mgkg^−1 PCP i.p., day 8)?
Answer: Its value is 135 ± 3 μmol/100 g/min.

Question: What about the “LCGU, AuD layers II, III&IV” value (2.58 mgkg^−1 PCP i.p., day 8) of the same compound?
Answer: Its value is 151 ± 4 μmol/100 g/min.

Question: And the “LCGU, AuD layers V & VI” value (2.58 mgkg^−1 PCP i.p., day 8)?
Answer: Its value is 104 ± 2 μmol/100 g/min.

Question: And the “LCGU, DLL” value (2.58 mgkg^−1 PCP i.p., day 8)?
Answer: Its value is 83 ± 4 μmol/100 g/min.

Question: And the “LCGU, MD” value (2.58 mgkg^−1 PCP i.p., day 8)?
Answer: The value was 115 ± 4 μmol/100 g/min.

Question: And the “LCGU, PrL layer I” value (2.58 mgkg^−1 PCP i.p., day 8)?
Answer: Its value is 104 ± 2 μmol/100 g/min.

Question: And the “LCGU, PrL layers II & III” value (2.58 mgkg^−1 PCP i.p., day 8)?
Answer: The value was 133 ± 2 μmol/100 g/min.

Question: And the “LCGU, PrL layers V & VI” value (2.58 mgkg^−1 PCP i.p., day 8)?
Answer: The value was 96 ± 3 μmol/100 g/min.

Question: What about the “LCGU, Rt” value (2.58 mgkg^−1 PCP i.p., day 8) of the same compound?
Answer: The value was 86 ± 2 μmol/100 g/min.

Question: What about the “LCGU, VLL” value (2.58 mgkg^−1 PCP i.p., day 8) of the same compound?
Answer: The value was 93 ± 3 μmol/100 g/min.

Question: And the “LCGU, cochlear nucleus” value (2.58 mgkg^−1 PCP i.p., day 8)?
Answer: The value was 98 ± 3 μmol/100 g/min.

Question: What about the “LCGU, mO layer” value (2.58 mgkg^−1 PCP i.p., day 8) of the same compound?
Answer: The value was 105 ± 4 μmol/100 g/min.

Question: And the “LCGU, mO layers II & III” value (2.58 mgkg^−1 PCP i.p., day 8)?
Answer: Its value is 127 ± 5 μmol/100 g/min.

Question: What about the “LCGU, mO layers V & VI” value (2.58 mgkg^−1 PCP i.p., day 8) of the same compound?
Answer: Its value is 115 ± 1 μmol/100 g/min.

Question: And the “LCGU, Au layer I” value (2.58 mgkg^−1 PCP i.p., day 29)?
Answer: Its value is 137 ± 5 μmol/100 g/min.

Question: And the “LCGU, Au layers II, III&IV” value (2.58 mgkg^−1 PCP i.p., day 29)?
Answer: The value was 162 ± 6 μmol/100 g/min.

Question: What about the “LCGU, Au layers V & VI” value (2.58 mgkg^−1 PCP i.p., day 29) of the same compound?
Answer: The value was 115 ± 3 μmol/100 g/min.

Question: And the “LCGU, AuD layer I” value (2.58 mgkg^−1 PCP i.p., day 29)?
Answer: The value was 130 ± 7 μmol/100 g/min.

Question: And the “LCGU, AuD layers II, III&IV” value (2.58 mgkg^−1 PCP i.p., day 29)?
Answer: The value was 146 ± 7 μmol/100 g/min.

Question: What about the “LCGU, AuD layers V & VI” value (2.58 mgkg^−1 PCP i.p., day 29) of the same compound?
Answer: Its value is 101 ± 4 μmol/100 g/min.

Question: And the “LCGU, DLL” value (2.58 mgkg^−1 PCP i.p., day 29)?
Answer: The value was 96 ± 5 μmol/100 g/min.

Question: What about the “LCGU, MD” value (2.58 mgkg^−1 PCP i.p., day 29) of the same compound?
Answer: The value was 116 ± 3 μmol/100 g/min.

Question: And the “LCGU, PrL layer I” value (2.58 mgkg^−1 PCP i.p., day 29)?
Answer: Its value is 107 ± 4 μmol/100 g/min.

Question: And the “LCGU, PrL layers II & III” value (2.58 mgkg^−1 PCP i.p., day 29)?
Answer: Its value is 116 ± 1 μmol/100 g/min.

Question: What about the “LCGU, PrL layers V & VI” value (2.58 mgkg^−1 PCP i.p., day 29) of the same compound?
Answer: Its value is 89 ± 2 μmol/100 g/min.

Question: What about the “LCGU, Rt” value (2.58 mgkg^−1 PCP i.p., day 29) of the same compound?
Answer: Its value is 89 ± 2 μmol/100 g/min.

Question: And the “LCGU, VLL” value (2.58 mgkg^−1 PCP i.p., day 29)?
Answer: Its value is 99 ± 4 μmol/100 g/min.

Question: And the “LCGU, cochlear nucleus” value (2.58 mgkg^−1 PCP i.p., day 29)?
Answer: Its value is 94 ± 4 μmol/100 g/min.

Question: And the “LCGU, mO layer” value (2.58 mgkg^−1 PCP i.p., day 29)?
Answer: Its value is 108 ± 5 μmol/100 g/min.

Question: And the “LCGU, mO layers II & III” value (2.58 mgkg^−1 PCP i.p., day 29)?
Answer: Its value is 124 ± 5 μmol/100 g/min.

Question: What about the “LCGU, mO layers V & VI” value (2.58 mgkg^−1 PCP i.p., day 29) of the same compound?
Answer: Its value is 111 ± 3 μmol/100 g/min.

Question: What about the “LCGU in medial orbital cortex, prelimbic cortex, auditory pathway, reticular nucleus of the thalamus” value (2.58 mgkg^−1 PCP, after both phases of the model) of the same compound?
Answer: The value was “induced a metabolic hypofunction”.

Question: What about the “effect on LCGU within any brain area” value (subchronic PCP 5 mgkg^−1 twice daily for seven days (data not shown)) of the same compound?
Answer: The value was “did not produce any significant effect”.
